Test results as given in patent US11040027B2, “Protein kinase inhibitors for promoting liver regeneration or reducing or preventing hepatocyte death” (HEPAREGENIX GMBH, priority 2017, dated 2021).
pIC50: −log10 of the molar value.

Legend:
C57BL/6N female mice = test: In vivo survival study after Jo2 antibody injection; conditions: 30 mg/kg oral gavage 1 h before i.p. 0.8 μg/g Jo2 antibody; versus vehicle only; 24 h; FIG. 1
Procedure: C57BL/6N female mice, age 6-9 weeks, purchased from Charles River Laboratories, Research Models and Services, Germany GmbH (Sulzfeld), were housed in accordance with the institutional guidelines of the University of TObingen, Germany. All animal experiments were approved by the German legal authorities.
Three experiments with n=3, n=4 and n=6 animals per group were performed. At time point t=−1 h), mice were dosed by oral gavage with either 30 mg/kg of compound, mixed in 2% hydroxymethylcellulose, pH 4.0) or vehicle only. One hour later (t=0 h), all animals were intraperitoneally (i.p.) injected with 0.8 μg/g mouse weight of Jo2 antibody (BD Pharmingen, San Diego, Calif.) diluted in 0.9% NaCl.
Mice were continuously monitored and survival was monitored all 15 min. After 24 h, all surviving animals were sacrificed.

BRaf = BRaf (Homo sapiens, UniProt P15056); test: KINOMEscan competition binding assay, selectivity BRaf versus MKK4; conditions: Test conc. 0.1 μM; ratio of percent of control; N/E* per footnote
MKK4 active = biological target: T1, MKK4 active (Homo sapiens, UniProt P45985); test: Radiometric protein kinase assay, MKK4 active; type: biochemical; conditions: substrate JNK1 KRKR, ATP 0.2 μM, read-out: MKK4 (potency derived from IC50-values)
T1 construct: purchased ProQinase 0948-0000-1
T1 sequence (P45985 1-399): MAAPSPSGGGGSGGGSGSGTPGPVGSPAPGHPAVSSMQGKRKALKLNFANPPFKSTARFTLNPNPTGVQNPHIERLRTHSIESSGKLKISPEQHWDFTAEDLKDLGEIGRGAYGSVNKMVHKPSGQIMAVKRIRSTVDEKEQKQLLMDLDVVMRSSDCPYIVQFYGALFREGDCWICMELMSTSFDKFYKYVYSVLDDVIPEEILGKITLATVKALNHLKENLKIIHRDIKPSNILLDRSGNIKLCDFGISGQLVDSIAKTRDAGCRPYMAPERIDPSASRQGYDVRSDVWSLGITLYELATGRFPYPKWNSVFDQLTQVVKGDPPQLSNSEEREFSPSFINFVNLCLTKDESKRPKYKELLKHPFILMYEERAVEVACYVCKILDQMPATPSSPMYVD
Procedure: (§1) A radiometric protein kinase assay was used for measuring the kinase activity of the respective protein kinases. All kinase assays were performed in 96-well polypropylene plates. After the reactions were stopped, the assay mixtures were transferred to 96-well MSFC filter-plates (Millipore). The reaction mix was passed through the filter membrane by aspiration, the membrane was washed 3 times with 150 mM H3PO4, once with ethanol, dried and liquid scintillation cocktail was added. Radioactivity was determined by counting of the samples in a Microbeta multiwell scintillation counter (Wallac).
(§2) b) Single Kinases • 20 μl standard assay buffer • 5 μl compound in 10% DMSO • 20 μl enzyme-substrate mix • 10 μl of substrate solution
(§3) The reaction cocktails were incubated at 30° C. for 30 minutes.

MEKK2 = biological target: T2, MEKK2 (Homo sapiens, UniProt Q9Y2U5); test: Radiometric protein kinase assay, MEKK2; type: biochemical; conditions: substrate Casein, ATP 0.2 μM; read-out: MEKK2 (potency derived from IC50-values)
T2 construct: purchased ProQinase 0583-0000-1
T2 sequence (Q9Y2U5 1-619): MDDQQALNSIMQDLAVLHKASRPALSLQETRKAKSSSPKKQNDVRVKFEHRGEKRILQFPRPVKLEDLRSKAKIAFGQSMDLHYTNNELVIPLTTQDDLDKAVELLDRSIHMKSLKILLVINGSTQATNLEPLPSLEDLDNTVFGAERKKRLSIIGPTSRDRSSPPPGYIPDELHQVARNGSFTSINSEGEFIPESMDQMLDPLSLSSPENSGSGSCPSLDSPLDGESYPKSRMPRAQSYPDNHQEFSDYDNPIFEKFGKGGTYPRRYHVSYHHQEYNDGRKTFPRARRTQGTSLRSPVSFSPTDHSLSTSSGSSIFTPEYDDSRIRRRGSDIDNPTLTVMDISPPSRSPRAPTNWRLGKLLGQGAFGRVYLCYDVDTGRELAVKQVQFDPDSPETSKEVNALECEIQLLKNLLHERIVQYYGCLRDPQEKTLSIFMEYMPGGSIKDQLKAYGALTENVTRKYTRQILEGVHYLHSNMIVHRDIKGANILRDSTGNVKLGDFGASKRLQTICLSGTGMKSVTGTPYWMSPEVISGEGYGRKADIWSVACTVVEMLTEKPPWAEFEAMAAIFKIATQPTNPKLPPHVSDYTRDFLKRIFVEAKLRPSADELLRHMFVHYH
Procedure: as §1, §2, §3

MKK4 = biological target: T3, MKK4 (Homo sapiens, UniProt P45985); test: KINOMEscan competition binding assay, MKK4; conditions: read-out: Potency MKK4 (derived from % of control values, PoC)
T3 sequence (P45985 84-399): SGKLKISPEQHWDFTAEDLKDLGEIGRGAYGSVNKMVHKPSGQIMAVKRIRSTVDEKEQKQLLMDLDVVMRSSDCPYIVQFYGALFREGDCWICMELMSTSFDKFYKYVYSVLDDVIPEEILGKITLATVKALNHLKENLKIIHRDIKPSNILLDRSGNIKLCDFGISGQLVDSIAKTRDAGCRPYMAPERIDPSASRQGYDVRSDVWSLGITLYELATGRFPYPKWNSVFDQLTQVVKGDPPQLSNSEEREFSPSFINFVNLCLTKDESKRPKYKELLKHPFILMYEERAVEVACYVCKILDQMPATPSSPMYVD
Procedure: (§4) The assay was performed by combining three components: DNA-tagged kinase; immobilized ligand; and a test compound. The ability of the test compound to compete with the immobilized ligand was measured via quantitative PCR of the DNA tag.
(§5) For investigation of the affinity to MKK4, MKK7 and JNK1, the kinases were produced in HEK-293 cells and subsequently tagged with DNA for qPCR detection. […] The liganded beads were blocked with excess biotin and washed with blocking buffer (SEABLOCK™ (Pierce), 1% BSA, 0.05% TWEEN®20, 1 mM DTT) to remove unbound ligand and to reduce nonspecific binding. […] All reactions were performed in polystyrene 96-well plates in a final volume of 0.135 mL. […] The kinase concentration in the eluates was measured by qPCR.
(§6) The test compounds were provided as 10 mM stock solutions. The test solutions at indicated final concentrations were prepared at DiscoverX.

JNK1 = JNK1 (Homo sapiens, UniProt P45983); test: KINOMEscan competition binding assay, selectivity JNK1 versus MKK4; conditions: Test conc 0.1 μM; ratio of percent of control; N/E* = PoC for JNK1 = 100
Procedure: as §4, §5, §6

MKK7 = biological target: T4, MKK7 (Homo sapiens, UniProt O14733); test: KINOMEscan competition binding assay, selectivity MKK7 versus MKK4; conditions: Test conc. 0.1 μM; ratio of percent of control; N/E* per footnote
T4 sequence (O14733 1-419): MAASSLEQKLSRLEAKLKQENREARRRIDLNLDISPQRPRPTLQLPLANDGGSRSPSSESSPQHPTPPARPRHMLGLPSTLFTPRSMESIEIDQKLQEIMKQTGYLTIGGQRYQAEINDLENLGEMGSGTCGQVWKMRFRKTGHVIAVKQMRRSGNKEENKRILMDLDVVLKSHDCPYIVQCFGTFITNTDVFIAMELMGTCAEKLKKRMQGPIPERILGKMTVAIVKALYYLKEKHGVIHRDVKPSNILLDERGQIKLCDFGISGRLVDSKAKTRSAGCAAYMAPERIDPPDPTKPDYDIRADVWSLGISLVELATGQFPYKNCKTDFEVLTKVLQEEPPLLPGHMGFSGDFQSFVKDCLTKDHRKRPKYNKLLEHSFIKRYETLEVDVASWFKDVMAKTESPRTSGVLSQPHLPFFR
Procedure: as §4, §5, §6

Chain of BRaf (P15056 whole entry): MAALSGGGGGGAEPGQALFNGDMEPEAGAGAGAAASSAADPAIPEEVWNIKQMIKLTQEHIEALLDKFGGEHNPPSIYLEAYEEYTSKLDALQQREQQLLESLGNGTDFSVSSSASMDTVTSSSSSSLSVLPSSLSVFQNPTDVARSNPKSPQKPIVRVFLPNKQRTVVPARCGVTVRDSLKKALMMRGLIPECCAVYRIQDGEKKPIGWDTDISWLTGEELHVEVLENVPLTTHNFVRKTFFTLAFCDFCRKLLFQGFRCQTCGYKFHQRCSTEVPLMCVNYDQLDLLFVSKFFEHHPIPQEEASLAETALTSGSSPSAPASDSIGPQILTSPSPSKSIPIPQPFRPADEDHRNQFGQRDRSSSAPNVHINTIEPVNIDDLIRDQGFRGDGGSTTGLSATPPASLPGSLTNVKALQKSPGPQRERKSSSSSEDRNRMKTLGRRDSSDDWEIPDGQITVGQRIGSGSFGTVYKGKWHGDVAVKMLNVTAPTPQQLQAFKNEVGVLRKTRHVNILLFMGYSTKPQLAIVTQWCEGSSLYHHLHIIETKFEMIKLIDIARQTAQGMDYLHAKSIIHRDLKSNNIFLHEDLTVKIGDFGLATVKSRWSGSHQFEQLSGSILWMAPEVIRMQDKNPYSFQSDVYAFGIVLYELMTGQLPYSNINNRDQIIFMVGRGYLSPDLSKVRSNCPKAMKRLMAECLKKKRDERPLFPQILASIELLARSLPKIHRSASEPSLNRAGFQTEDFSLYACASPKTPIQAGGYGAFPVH
Chain of JNK1 (P45983 1-384 isoform P45983-2): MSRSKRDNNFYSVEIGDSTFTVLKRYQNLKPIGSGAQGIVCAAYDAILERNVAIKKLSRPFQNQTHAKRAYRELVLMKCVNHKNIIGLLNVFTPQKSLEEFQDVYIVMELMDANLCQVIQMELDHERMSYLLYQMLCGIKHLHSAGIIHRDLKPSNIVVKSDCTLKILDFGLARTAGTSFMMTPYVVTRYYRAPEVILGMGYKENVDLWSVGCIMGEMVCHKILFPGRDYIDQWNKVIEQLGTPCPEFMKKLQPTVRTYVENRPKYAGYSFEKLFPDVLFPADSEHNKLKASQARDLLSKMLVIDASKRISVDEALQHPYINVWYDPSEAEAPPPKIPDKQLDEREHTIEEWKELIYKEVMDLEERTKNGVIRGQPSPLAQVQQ

SMILES	survival rate (C57BL/6N female mice)	Selectivity BRaf/MKK4 (BRaf)	pIC50 (MKK4 active)	pIC50 (MEKK2)	remaining binding at 0.1 µM (MKK4) [%]	Selectivity JNK1/MKK4 (JNK1)	Selectivity MKK7/MKK4 (MKK7)
CCCS(=O)(=O)Nc1ccc(F)c(C(=O)c2c[nH]c3ncc(-c4ccc(Cl)cc4)cc23)c1F [Example 2, Propane-1-sulfonic acid {3-[5-(4-chloro-phenyl)-1H-pyrrolo[2,3-b]pyridine-3-carbonyl]-2,4-difluoro-phenyl}-amide]	significantly higher						
CCCCS(=O)(=O)Nc1cccc(C(=O)c2c[nH]c3ncc(-c4ccc5c(c4)OCCO5)cc23)c1F [Example 54]		36	> 6.30	5.00 to 6.00	< 10	55	61
CCCCS(=O)(=O)Nc1cccc(C(=O)c2c[nH]c3ncc(-c4cc5c(cc4Cl)OCO5)cc23)c1F [Example 55]		N/E* (PoC for JNK1 = 100)	> 6.30	< 5.00	< 10	14	N/E* (PoC for JNK1 = 100)
CCCCS(=O)(=O)Nc1cccc(C(=O)c2c[nH]c3ncc(-c4cc5c(cc4Cl)OCCO5)cc23)c1F [Example 56]		N/E* (PoC for JNK1 = 100)	> 6.30	< 5.00	< 10	24	N/E* (PoC for JNK1 = 100)
